From US8017612B2, “Piperazine compound and use thereof as a HCV polymerase inhibitor” (priority 2006, dated 2011) come the findings set out here.

The target in test [1] is T1, HCV polymerase (NS5B) type 1b (Hepatitis C virus genotype 1b, UniProt P26663).
T1 construct: a region encoding NS5B (J Virol 1991 March, 65(3), 1105-13, 544 amino acids after deletion of 47 amino acids on the C-terminal); 6xHis (C); made in house; host or cells: Escherichia coli
Briefly: Assay of enzyme (HCV polymerase) inhibitory activity, type 1b enzyme. It counts as biochemical, HCV BK strain (type 1b). An outline of the steps: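 Rxn: NS5B 1b (BK, ΔC47, His6) 0.5 μg/ml; substrate RNA 5 μg/ml; ATP/GTP/CTP 50 μM, UTP 2 μM + [5,6-3H]UTP; 20 mM Tris pH 7.5, 5 mM MgCl2, 50 mM NaCl, 1 mM EDTA/DTT. 25 °C, 60 min. Stop with TCA/pyrophosphate, filter, scintillation count; IC50 vs. untreated.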

The target of test [2] is T2, HCV polymerase (NS5B) type 1a (Hepatitis C virus genotype 1a, UniProt P26664).
T2 construct: made in house; host or cells: Escherichia coli (by the 'similar method' of the 1b enzyme)
Put plainly: Assay of enzyme (HCV polymerase) inhibitory activity, type 1a enzyme. The class given is biochemical, HCV type 1a (cloned from the blood of patients). Put shortly: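 NS5B Δ47 C-term His6 (type 1a, 1.5 μg/ml); substrate RNA 5 μg/ml; ATP/GTP/CTP 50 μM, UTP 2 μM + [5,6-3H]UTP; Tris pH 7.5, MgCl2 5 mM; 25° C, 60 min. TCA/pyrophosphate stop, GF/B filter, scintillation. IC50 vs no-compound control.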

The mark [3] stands for this setting: HCV polymerase inhibitory activity (IC50), 1b, type 1b enzyme 0.5 μg/ml, 25° C., 60 min.
[4] abbreviates: HCV polymerase inhibitory activity (IC50), 1a, type 1a enzyme 1.5 μg/ml, 25° C., 60 min.
Where [5] appears, read: HCV polymerase inhibitory activity IC50, 1b, type 1b enzyme.
[6] abbreviates: HCV polymerase inhibitory activity IC50, 1a, type 1a enzyme.

Broadly, the IC50 is the midpoint of a concentration-inhibition curve. In the case of `COc1ccccc1CC(=O)N1CCN(S(=O)(=O)c2ccc(C(F)(F)F)cc2)[C@@H](C(=O)NCc2ccc(C(C)C)cc2)C1` [Example 267, (R)-4-[2-(2-methoxy-phenyl)-acetyl]-1-(4-trifluoromethyl-benzenesulfonyl)-piperazine-2-carboxylic acid 4-isopropyl-benzylamide], the IC50 in test [1] (setting [3]) was 0.1 to 1 µM; in test [2] (setting [4]), over 1 µM.

With `COC(=O)c1cnc(N2CCN(S(=O)(=O)c3ccc(C(F)(F)F)cc3)[C@@H](C(=O)NCc3ccc(C(C)C)cc3)C2)c(C)n1` [Example 431, (R)-3-(4-isopropyl-benzylcarbamoyl)-3′-methyl-4-(4-trifluoromethyl-benzenesulfonyl)-3,4,5,6-tetrahydro-2H-[1,2′]bipyrazinyl-5′-carboxylic acid methyl ester], the IC50 in test [1] (setting [3]) and in test [2] (setting [4]) was 0.1 to 1 µM in each case.

In the case of `Cc1nc(N2CCN(S(=O)(=O)c3ccc(OC(F)(F)F)cc3)[C@@H](C(=O)NCc3ccc(C(C)C)cc3)C2)sc1C(=O)N(C)C` [Example 355, (R)-4-(5-dimethylcarbamoyl-4-methyl-thiazol-2-yl)-1-(4-trifluoromethoxy-benzenesulfonyl)-piperazine-2-carboxylic acid 4-isopropyl-benzylamide], the 50% inhibitory concentration (IC50) in test [1] (setting [3]) and in test [2] (setting [4]) was under 0.1 µM each time.

Turning to `O=C(NCc1ccc(OC(F)F)cc1F)[C@H]1CN(c2nc3nc(C4CC4)ncc3s2)CCN1S(=O)(=O)c1ccc(C(F)(F)F)cc1` [Example 1040, (R)-4-(5-cyclopropyl-thiazolo[4,5-d]pyrimidin-2-yl)-1-(4-trifluoromethyl-benzenesulfonyl)-piperazine-2-carboxylic acid 4-difluoromethoxy-2-fluoro-benzylamide], the 50% inhibitory concentration (IC50) in test [1] (setting [5]) and in test [2] (setting [6]) was under 0.1 µM each time.

For `CC(=O)N1CCN(S(=O)(=O)c2ccc(C(C)C)cc2)[C@@H](C(=O)NCc2ccc(-c3csnn3)cc2)C1` [Example 492, (R)-4-acetyl-1-(4-isopropyl-benzenesulfonyl)-piperazine-2-carboxylic acid 4-[1,2,3]thiadiazol-4-yl-benzylamide], the IC50 was 0.1 to 1 µM in test [1] (setting [3]) and over 1 µM in test [2] (setting [4]).

`CCC(F)(F)c1ccc(CNC(=O)[C@H]2CN(c3cnc4cc(Br)ccc4n3)CCN2S(=O)(=O)c2ccc(OC(F)(F)F)cc2)cc1` [Example 684, (R)-4-(6-bromo-quinoxalin-2-yl)-1-(4-trifluoromethoxy-benzenesulfonyl)-piperazine-2-carboxylic acid 4-(1,1-difluoro-propyl)-benzylamide]: the concentration for half-maximal inhibition (IC50) in test [1] (setting [5]) and in test [2] (setting [6]) was 0.1 to 1 µM throughout.

Consider `CC(C)c1ccc(CNC(=O)[C@H]2CN(c3nc4ccccc4s3)CCN2S(=O)(=O)c2ccc(C(F)(F)F)cc2)cc1` [Example 191, (R)-4-benzothiazol-2-yl-1-(4-trifluoromethyl-benzenesulfonyl)-piperazine-2-carboxylic acid 4-isopropyl-benzylamide], for which the IC50 in test [1] (setting [3]) and in test [2] (setting [4]) was 0.1 to 1 µM in each case.

Take `CC(C)c1ccc(S(=O)(=O)N2CCN(C(=O)Cc3ccccc3)CC2C(=O)NCc2ccc(C(F)(F)F)cc2)cc1` (stereo not drawn) [Example 124, 1-(4-isopropyl-benzenesulfonyl)-4-phenylacetyl-piperazine-2-carboxylic acid 4-trifluoromethyl-benzylamide]: the 50% inhibitory concentration (IC50) in test [1] (setting [3]) and in test [2] (setting [4]) was over 1 µM each time.

Turning to `CC(=O)N1CCN(S(=O)(=O)c2ccc(OC(F)(F)F)cc2)[C@@H](C(=O)NCc2ccc(C(C)(C)C)cc2)C1` [Example 529, (R)-4-acetyl-1-(4-trifluoromethoxy-benzenesulfonyl)-piperazine-2-carboxylic acid 4-tert-butyl-benzylamide], the IC50 in test [1] (setting [3]) and in test [2] (setting [4]) was under 0.1 µM in each case.

As to `COC(=O)CCOc1ccc(S(=O)(=O)N2CCN(C(C)=O)C[C@@H]2C(=O)NCc2ccc(C(C)C)cc2)cc1` [Example 250, 3-{4-[(R)-4-acetyl-2-(4-isopropyl-benzylcarbamoyl)-piperazine-1-sulfonyl]-phenoxy}-propionic acid methyl ester], the IC50 in test [1] (setting [3]) and in test [2] (setting [4]) was 0.1 to 1 µM throughout.

As for `O=C(NCc1ccc(OC(F)(F)F)cc1)[C@H]1CN(c2nn3c(CO)cc(=O)nc3s2)CCN1S(=O)(=O)c1ccc(OC(F)(F)F)cc1` [Example 1105], the values for the IC50 in test [1] (setting [5]) and in test [2] (setting [6]) were under 0.1 µM and 0.1 to 1 µM, respectively.

`CC(C)(C)c1ccc(CNC(=O)[C@H]2CN(c3cnc(CO)c(N)n3)CCN2S(=O)(=O)c2ccc(OC(F)(F)F)cc2)cc1` [Example 575, (R)-6′-amino-5′-hydroxymethyl-4-(4-trifluoromethoxy-benzenesulfonyl)-3,4,5,6-tetrahydro-2H-[1,2′]bipyrazinyl-3-carboxylic acid 4-tert-butyl-benzylamide]: the IC50 in test [1] (setting [3]) and in test [2] (setting [4]) was under 0.1 µM each time.

Consider `CC(=O)N1CCN(S(=O)(=O)c2ccc(C(C)C)cc2)[C@@H](C(=O)NCc2ccc(C(C)(C)C(=O)N(C)C)cc2)C1` [Example 233, (R)-4-acetyl-1-(4-isopropyl-benzenesulfonyl)-piperazine-2-carboxylic acid 4-(1-dimethylcarbamoyl-1-methyl-ethyl)-benzylamide], for which the IC50 in test [1] (setting [3]) and in test [2] (setting [4]) was over 1 µM in each case.

Regarding `CC(C)(C)c1ccc(CNC(=O)[C@H]2CN(c3nc4nn[nH]c(=O)c4s3)CCN2S(=O)(=O)c2ccc(OC(F)(F)F)cc2)cc1` [Example 618, (R)-4-(4-oxo-3,4-dihydro-thiazolo[4,5-d][1,2,3]triazin-6-yl)-1-(4-trifluoromethoxy-benzenesulfonyl)-piperazine-2-carboxylic acid 4-tert-butyl-benzylamide], the half-maximal inhibitory concentration (IC50) in test [1] (setting [3]) and in test [2] (setting [4]) was under 0.1 µM in each case.

Consider `O=C(O)c1cnc(N2CCN(S(=O)(=O)c3ccc(OC(F)(F)F)cc3)[C@@H](C(=O)NCc3ccc(OC(F)(F)F)cc3)C2)cn1` [Example 386, (R)-4-(4-trifluoromethoxy-benzenesulfonyl)-3-(4-trifluoromethoxy-benzylcarbamoyl)-3,4,5,6-tetrahydro-2H-[1,2′]bipyrazinyl-5′-carboxylic acid], for which the IC50 in test [1] (setting [3]) and in test [2] (setting [4]) was under 0.1 µM throughout.

`CCCc1ccc(CNC(=O)[C@H]2CN(C(C)=O)CCN2S(=O)(=O)c2ccc(OC(F)(F)F)cc2)cc1` [Example 450, (R)-4-acetyl-1-(4-trifluoromethoxy-benzenesulfonyl)-piperazine-2-carboxylic acid 4-propyl-benzylamide]: the IC50 in test [1] (setting [3]) and in test [2] (setting [4]) was under 0.1 µM throughout.

As for `CC(=O)N1CCN(S(=O)(=O)c2ccc(-c3cc(C(F)(F)F)on3)s2)C(C(=O)NCc2ccc(C(F)(F)F)cc2)C1` (stereo not drawn) [Example 43, 4-acetyl-1-[5-(5-trifluoromethyl-isoxazol-3-yl)-thiophene-2-sulfonyl]-piperazine-2-carboxylic acid 4-trifluoromethyl-benzylamide], the IC50 in test [1] (setting [3]) and in test [2] (setting [4]) was over 1 µM throughout.

Consider `NC(=O)c1cncc2ncc(N3CCN(S(=O)(=O)c4ccc(OC(F)(F)F)cc4)[C@@H](C(=O)NCc4ccc(OC(F)(F)F)cc4)C3)nc12` [Example 807, 2-[(R)-4-(4-trifluoromethoxy-benzenesulfonyl)-3-(4-trifluoromethoxy-benzylcarbamoyl)-piperazin-1-yl]-pyrido[3,4-b]pyrazine-8-carboxylic acid amide], for which the IC50 in test [1] (setting [5]) and in test [2] (setting [6]) was under 0.1 µM each time.
